Results on two molecules are retold here after patent US20050042283A1, “Histamine and CCK2/gastrin receptor blockade in the treatment of acid-peptic disease and cancer” (UNIVERSITY OF MASSACHUSETTS, priority 2003, published 2005).

Series [1] relates to H. felis-infected INS-GAS mice. The series can be described thus: Gastric mucosa histological evaluation and scoring. The series is classed as in vivo. To be noted: omeprazole study, 3 months; scale 0 to 4; n = 4. An excerpt:
The insulin-gastrin (INS-GAS) transgenic mice (FVB/N background) have been described previously (Wang, T. C. et al., 2000; Wang T. C. et al., 1993) and were free of specific pathogens. Animals were housed in microisolator, solid-bottomed polycarbonate cages, fed a commercially prepared pelleted diet, and given water ad libitum. One hundred twenty four (124) male INS-GAS mice at 2 or 3 months of age were inoculated with Helicobacter felis (ATCC 49179) as previously described (Wang, T. C. et al., 2000). Infection status was confirmed at 14 weeks and 26 weeks post inoculation by enzyme-linked immunosorbent assay (ELISA) to measure immunoglobulin IgG antibody to H. felis, and by quantitative real-time PCR assays of gastric corpus tissue at necropsy as described below. All experiments were approved by the Institutional Animal Care and Use Committee of University of Massachusetts Medical School.
Mice in group III were treated orally with the histamine H2 receptor antagonist loxtidine (in drinking water) at a dose of 0.5 g/L, while group IV mice received both drugs. For the 3 months drug study of inhibitory effects on maximal acid secretion, gastric atrophy, hyperplasia and dysplasia, 8 mice were prepared for each group. For the 6 months drug study of inhibitory effects on gastric carcinogenesis, 17 mice were prepared for each group.
The proton pump inhibitor omeprazole was purchased from Sigma (St. Louis Mo.) and dissolved in dimethylsulfoxide (DMSO)/PEG300, a 1:1 mixture at the concentration of 40 mg/ml, and injected intraperitoneally daily at the dose of […] (=350 micromole/kg) for 3 months. Twenty four (24) mice were divided into four groups. Mice in group A were controls treated with vehicle only, whereas group B mice were treated with omeprazole alone. Group C and D mice were treated with combination of omeprazole and YF476 or loxtidine, respectively.
At necropsy, linear strips extending from the squamocolumnar junction through the proximal duodenum were fixed in 10% neutral-buffered formalin, paraffin-embedded, cut at 5 microns, and stained with hematoxylin and eosin. Indices of injury in the gastric cardia/corpus and antrum were scored on an ordinal scale from 0 to 4 in increments of 0.5 by a single veterinary pathologist (A.B.R.) blinded to treatment groups. Paraffin-embedded sections were also stained with the Warthin-Starry silver staining method for detection of H.felis as previously described (Fox, J. G. et al., 2003).

The next series concerns ECL cell. To be noted: rats; Poynter et al.; cited from earlier work.
The target in the next series is T1, CCK-B (Rattus norvegicus, UniProt P30553).
T1 sequence (P30553 1-452): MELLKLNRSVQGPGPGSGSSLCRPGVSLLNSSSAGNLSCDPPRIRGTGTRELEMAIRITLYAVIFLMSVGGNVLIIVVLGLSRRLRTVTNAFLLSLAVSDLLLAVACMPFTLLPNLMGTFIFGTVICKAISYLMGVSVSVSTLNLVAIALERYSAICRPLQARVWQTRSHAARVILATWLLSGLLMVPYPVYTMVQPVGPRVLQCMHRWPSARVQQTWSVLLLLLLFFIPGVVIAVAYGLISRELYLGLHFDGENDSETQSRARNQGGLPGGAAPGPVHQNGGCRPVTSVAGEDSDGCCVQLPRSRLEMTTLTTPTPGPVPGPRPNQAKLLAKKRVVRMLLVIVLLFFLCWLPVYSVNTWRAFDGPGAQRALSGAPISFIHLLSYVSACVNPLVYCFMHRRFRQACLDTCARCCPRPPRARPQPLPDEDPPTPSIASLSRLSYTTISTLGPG
Particulars: reportedly; Lindstrom et al 1999; cited from earlier work.

As to `COc1ccc2[nH]c([S+]([O-])Cc3ncc(C)c(OC)c3C)nc2c1` (stereo not drawn) [Omeprazole alone], in series [1], the “Corpus histological score: Atrophy” value was found to be 3.13 ± 0.25, the “Corpus histological score: Dysplasia” value is given as 1.38 ± 0.48, the “Corpus histological score: Hyperplasia” value is recorded as 2.75 ± 0.50 and the “Corpus histological score: Inflammation” value was 1.88 ± 0.63a. Further, the “Duration of administration after which ECL cell hyperplasia was seen” value in the series with ECL cell was 28 days.
For `Cc1cccc(NC(=O)N[C@@H]2N=C(c3ccccc3)c3ccccc3N(CC(=O)c3ccccc3C)C2=O)c1` [YM022], the “Potency relative to YF476” value on CCK-B is recorded as “about 5 times”.
